From patent US20250289814A1, “COMPOUNDS AS PARP1 INHIBITIORS” (NINGBO NEWBAY TECHNOLOGY DEVELOPMENT CO., LTD., priority 2022, published 2025) come the findings set out here.

One data set relates to DLD1-BRCA2−/− cells. The data set is described as follows: Cell proliferation assay in DLD1-BRCA2−/− cell lines (CellTiter-Glo, 7 days). Format: cell-based. The method in brief:
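Cells in RPMI 1640 + 10% FBS seeded overnight, then exposed to compound or vehicle for 7 days at 37 °C, 5% CO2. Viability read on day 8 by CellTiter-Glo luminescence; % inhibition fitted to a four-parameter logistic curve for IC50.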
Background: Cellular ATP, detected with luciferase, serves as a proxy for viable cell number.

The nature of data set [1]: Caco2 (A-B/B-A) permeability. Format: in vitro ADME. As to conditions: human; for Papp A→B at 120 min, 5 μM: Caco-2, pH 7.4, apical-to-basolateral, read-out: Caco2 A-B apparent permeability (Papp); for Papp A→B at 120 min, 5 μM / Papp B→A at 120 min, 5 μM: HBSS pH 7.4, 120 min, 37° C.; for Papp B→A at 120 min, 5 μM: Caco-2, pH 7.4, basolateral-to-apical, read-out: Caco2 B-A apparent permeability (Papp); for efflux ratio at 120 min, 5 μM: Caco-2, pH 7.4, PappB-A/PappA-B, read-out: Caco2 efflux ratio (ER). An outline of the steps:
(§1)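 Bidirectional A-B and B-A transport of 5 μM compound across Caco-2 monolayers in HBSS (10 mM HEPES, pH 7.4), duplicate, ~37° C for 120 min. Donor and receiver levels measured by UPLC-MS/MS give Papp. Efflux ratio = PappB-A/PappA-B, with monolayer integrity checked by Lucifer yellow.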
For orientation: Passage across Caco-2 layers is used to estimate intestinal permeability.

The next data set concerns Caco-2 cell monolayers. The data set can be described thus: Caco2 (A-B/B-A) permeability. The data set is classed as in vitro ADME. As to conditions: for Caco2 efflux ratio (ER): PappB-A/PappA-B; for Caco2 A-B apparent permeability (Papp): apical-to-basolateral; for Caco2 A-B apparent permeability (Papp) / Caco2 B-A apparent permeability (Papp): 5 μM, HBSS pH 7.4, 120 min, 37° C.; for Caco2 B-A apparent permeability (Papp): basolateral-to-apical. The method in brief: as §1

In data set [2] the target is Recombinant full length PARP1 (Homo sapiens (Human), UniProt P09874). The data set can be described thus: FP assay PARP1 (fluorescence anisotropy probe displacement). Format: binding. Particulars: 20 nM PARP1, 8 nM fluorescent probe, 4 h, room temperature. The method, then:
(§2) FP experiments were carried out at room temperature using no-binding black 384-well microplates. Recombinant full length PARP1 and PARP2 proteins produced in house were diluted to 20 nM and 60 nM, respectively, with assay buffer (50 mM Tris pH 8, 0.001% Triton X100, 10 mM MgCl2, and 150 mM NaCl) and incubated for 4 h with an equivalent volume of the 8 nM fluorescent probe diluted with assay buffer. Fluorescence anisotropy of the probe when bound to the proteins was measured in the presence of test compounds or solvent control and the effect on anisotropy determined. Polarization values were read using an Envision plate reader using excitation and emission wavelengths of 590 and 630 nm, respectively. All FP values are expressed as mP units. Inhibition ratio was calculated using readout (mP) following the equation as below: […]
(§3) % inhibition values for different test compound concentrations were calculated and fitted to a four parameter logistic plot in order to determine the IC50 value using XLfit.
A general note: Polarisation of emitted light reports the rotation of a fluorescent probe.

The target in data set [3] is Recombinant full length PARP2 (Homo sapiens (Human), UniProt Q9UGN5). The data set can be described thus: FP assay PARP2 (fluorescence anisotropy probe displacement). Format: binding. Particulars: 60 nM PARP2, 8 nM fluorescent probe, 4 h, room temperature. How it is done:
as §2, §3

The nature of data set [4]: Kinetic solubility, PBS, pH7.4. Format: physicochemical. Particulars: 300 μM test compound. How it is done: After incubation, the samples were filtered, and the filtrate was diluted by 1000-fold with water:acetonitrile 1:1 (v/v) for analysis by UPLC MS/MS to determine the concentration of test compound. The solubility value was calculated by quantification against a standard of known concentration.

Data set [5] in a line: Thermodynamic solubility, FaSSiF. As to conditions: for solubility thermodynamic at 24 h: FaSSIF, 25 °C, thermodynamic from solid. Format: physicochemical. The method, then:
All incubations were performed in duplicate. Test compound or the control compound diclofenac sodium (1.0 mg) were placed into 1.5 mL glass vials. FaSSIF (1000 μL) was added into the vials. The samples were transferred to Eppendorf Thermomixer Comfort plate shaker and shaken at 25° C., 1100 rpm for 24 hours. The samples were then filtered. The filtrate was diluted by 1000-fold with water:acetonitrile 1:1 (v/v) for analysis by UPLC MS/MS to determine the concentration of test compound. The solubility value was calculated by quantification against a standard of known concentration.

Where [6] appears, read: PBS pH 7.4, 25 °C, pH 7.4, aqueous buffer, kinetic from dmso stock.

Values after ≈ are worked out from the molar mass of the structure shown. Values joined by “and” are separate entries in the source; they are usually repeats but may differ in a detail not shown here. Equal entries are not always repeated. Where two headings read alike, the source gives them in different places.

Sequence of Recombinant full length PARP2 (Q9UGN5 whole entry): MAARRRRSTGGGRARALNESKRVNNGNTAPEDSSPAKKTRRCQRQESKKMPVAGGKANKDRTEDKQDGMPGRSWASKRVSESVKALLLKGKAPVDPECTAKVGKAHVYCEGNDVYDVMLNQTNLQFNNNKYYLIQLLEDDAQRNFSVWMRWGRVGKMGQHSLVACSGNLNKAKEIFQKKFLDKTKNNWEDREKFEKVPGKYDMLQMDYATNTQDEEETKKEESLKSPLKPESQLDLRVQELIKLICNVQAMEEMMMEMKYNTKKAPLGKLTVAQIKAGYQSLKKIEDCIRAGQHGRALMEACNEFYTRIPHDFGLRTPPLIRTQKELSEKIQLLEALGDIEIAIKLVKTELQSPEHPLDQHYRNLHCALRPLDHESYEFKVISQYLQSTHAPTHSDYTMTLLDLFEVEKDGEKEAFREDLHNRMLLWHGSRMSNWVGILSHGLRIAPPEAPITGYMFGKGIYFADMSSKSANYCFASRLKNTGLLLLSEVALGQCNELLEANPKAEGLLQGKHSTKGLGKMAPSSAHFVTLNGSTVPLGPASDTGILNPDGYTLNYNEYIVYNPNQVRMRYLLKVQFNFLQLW
Sequence of Recombinant full length PARP1 (P09874 whole entry): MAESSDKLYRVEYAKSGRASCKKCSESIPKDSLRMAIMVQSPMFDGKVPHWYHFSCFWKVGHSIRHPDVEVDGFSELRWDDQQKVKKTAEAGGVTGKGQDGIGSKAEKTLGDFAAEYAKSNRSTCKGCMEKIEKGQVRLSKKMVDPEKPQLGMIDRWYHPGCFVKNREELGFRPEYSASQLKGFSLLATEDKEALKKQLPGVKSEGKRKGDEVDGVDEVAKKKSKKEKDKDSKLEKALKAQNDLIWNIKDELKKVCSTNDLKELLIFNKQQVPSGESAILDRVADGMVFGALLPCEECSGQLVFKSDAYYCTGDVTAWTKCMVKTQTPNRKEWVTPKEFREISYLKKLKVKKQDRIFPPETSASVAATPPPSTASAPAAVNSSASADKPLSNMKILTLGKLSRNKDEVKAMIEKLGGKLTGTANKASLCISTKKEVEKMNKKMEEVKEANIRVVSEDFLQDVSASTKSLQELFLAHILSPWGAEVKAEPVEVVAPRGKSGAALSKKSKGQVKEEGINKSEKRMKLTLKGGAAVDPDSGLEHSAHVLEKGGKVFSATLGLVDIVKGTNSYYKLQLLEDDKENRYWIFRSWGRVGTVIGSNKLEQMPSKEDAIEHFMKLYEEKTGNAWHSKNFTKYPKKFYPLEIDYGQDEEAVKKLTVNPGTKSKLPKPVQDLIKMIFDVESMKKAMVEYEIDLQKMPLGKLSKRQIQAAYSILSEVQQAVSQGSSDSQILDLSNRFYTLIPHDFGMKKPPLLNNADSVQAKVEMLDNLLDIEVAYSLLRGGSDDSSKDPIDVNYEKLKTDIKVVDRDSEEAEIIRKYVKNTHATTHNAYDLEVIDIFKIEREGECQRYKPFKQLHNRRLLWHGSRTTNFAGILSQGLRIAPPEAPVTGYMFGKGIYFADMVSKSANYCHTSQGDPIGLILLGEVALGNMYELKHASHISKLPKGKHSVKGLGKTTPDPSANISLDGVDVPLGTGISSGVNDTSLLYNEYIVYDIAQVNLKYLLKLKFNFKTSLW

For orientation: IC50 means the concentration needed to halve the response being measured. Usually Papp A→B stands for the apparent permeability from the apical to the basolateral side of a cell layer. For orientation: Papp B→A means the apparent permeability from the basolateral to the apical side of a cell layer. Regarding `CCc1cc2cnc([C@@H](C)N3CC(Oc4ccc(C(=O)NC)nc4)C3)cc2[nH]c1=O` (single isomer, unassigned) [Compound 47, (enantiomer 1 or 2)-5-((1-(1-(3-ethyl-2-oxo-1,2-dihydro-1,6-naphthyridin-7-yl)ethyl)azetidin-3-yl)oxy)-N-methylpicolinamide], the IC50 in the data set with DLD1-BRCA2−/− cells (Homo sapiens, DLD-1, 168 h) is 26.8 nM; in data set [2], 5.8 nM; in data set [3], greater than 10 µM. Further, the apical-to-basolateral permeability (Papp A→B) at 120 min, 5 μM in data set [1] is 4.82 ×10⁻⁶ cm/s. The basolateral-to-apical permeability (Papp B→A) at 120 min, 5 μM in data set [1] is 35.6 ×10⁻⁶ cm/s. Besides, in the data set with Caco-2 cell monolayers, the “Caco2 efflux ratio (ER)” value is listed as “(ER = 7.38)”.

`CCc1cc2cnc([C@@H](C)N3CC(Oc4ccc(C(=O)NC)nc4)C3)cc2[nH]c1=O` (single isomer, unassigned) [Compound 48, (enantiomer 1 or 2)-5-((1-(1-(3-ethyl-2-oxo-1,2-dihydro-1,6-naphthyridin-7-yl)ethyl)azetidin-3-yl)oxy)-N-methylpicolinamide]: in the data set on DLD1-BRCA2−/− cells, 21.9 nM corresponded to half-maximal inhibition (IC50). Also, in the data set on Caco-2 cell monolayers, the “Caco2 efflux ratio (ER)” value is “(ER = 2.51)”, the “Caco2 A-B apparent permeability (Papp)” value was 8.96 10*−6 cm/s and the “Caco2 B-A apparent permeability (Papp)” value is on record as 22.47 10*−6 cm/s. In addition, in data set [2], the IC50 is 5.1 nM. The IC50 in data set [3] is greater than 10 µM.

With `CCc1nc2ccc([C@H](C)N3CC(Oc4ccc(C(=O)NC)nc4)C3)cc2[nH]c1=O` (single isomer, unassigned) [Compound 53, (enantiomer 1 or 2)-5-((1-(1-(2-ethyl-3-oxo-3,4-dihydroquinoxalin-6-yl)ethyl)azetidin-3-yl)oxy)-N-methylpicolinamide], the concentration for half-maximal inhibition (IC50) in the data set on DLD1-BRCA2−/− cells is 12.1 nM; in data set [2], 24.2 nM; in data set [3] it was greater than 10 µM. Besides, in the data set with Caco-2 cell monolayers, the “Caco2 efflux ratio (ER)” value is “(ER = 2.51)”. Further, the “Caco2 A-B apparent permeability (Papp)” value in the data set with Caco-2 cell monolayers is recorded as 13.2 10*−6 cm/s. Besides, the “Caco2 B-A apparent permeability (Papp)” value in the data set on Caco-2 cell monolayers is reported as 33.19 10*−6 cm/s.

`CCc1nc2ccc([C@H](C)N3CC(Oc4ccc(C(=O)NC)nc4F)C3)cc2[nH]c1=O` (single isomer, unassigned) [Compound 57, (enantiomer 1 or 2)-5-((1-(1-(2-ethyl-3-oxo-3,4-dihydroquinoxalin-6-yl)ethyl)azetidin-3-yl)oxy)-6-fluoro-N-methylpicolinamide] returned an IC50 with DLD1-BRCA2−/− cells of 9.1 nM. In addition, in the data set with Caco-2 cell monolayers, the “Caco2 efflux ratio (ER)” value was “(ER = 2.38)”, the “Caco2 A-B apparent permeability (Papp)” value is 12.25 10*−6 cm/s and the “Caco2 B-A apparent permeability (Papp)” value was 29.21 10*−6 cm/s. For the same compound, the IC50 in data set [2] amounted to 7.3 nM.

`CCc1cc2ncc([C@@H](C)N3CC(Oc4ccc(C(=O)NC)nc4F)C3)cc2[nH]c1=O` (single isomer, unassigned; enantiomer 2) [Compound 46, (enantiomer 2)-5-((1-(1-(7-ethyl-6-oxo-5,6-dihydro-1,5-naphthyridin-3-yl)ethyl)azetidin-3-yl)oxy)-6-fluoro-N-methylpicolinamide]: half-maximal inhibition with DLD1-BRCA2−/− cells (IC50) required 6.6 nM. In addition, in the data set on Caco-2 cell monolayers, the “Caco2 efflux ratio (ER)” value is on record as “(ER = 8.07)”, the “Caco2 A-B apparent permeability (Papp)” value is given as 5.51 10*−6 cm/s and the “Caco2 B-A apparent permeability (Papp)” value is on record as 44.49 10*−6 cm/s. In addition, in data set [2], the IC50 was determined as 4.3 nM. The concentration for half-maximal inhibition (IC50) in data set [3] was found to be 2.58 µM.

On to `CCc1cc2cnc([C@H](C)N3CC(Oc4ccc(C(=O)NC)nc4F)C3)cc2[nH]c1=O` (single isomer, unassigned; enantiomer 2) [Compound 50, (enantiomer 2)-5-((1-(1-(3-ethyl-2-oxo-1,2-dihydro-1,6-naphthyridin-7-yl)ethyl)azetidin-3-yl)oxy)-6-fluoro-N-methylpicolinamide], for which the IC50 is 7.2 nM in the data set with DLD1-BRCA2−/− cells, 18.1 nM in data set [2] and greater than 10 µM in data set [3]. Besides, the “Caco2 efflux ratio (ER)” value in the data set with Caco-2 cell monolayers was “(ER = 8.36)”. Moreover, the “Caco2 A-B apparent permeability (Papp)” value with Caco-2 cell monolayers is given as 3.84 10*−6 cm/s. Moreover, the “Caco2 B-A apparent permeability (Papp)” value with Caco-2 cell monolayers is 32.1 10*−6 cm/s.

Broadly, the kinetic solubility is solubility judged after dilution from a stock solution rather than from solid. As a reminder, the thermodynamic solubility is the concentration in solution at equilibrium with solid. As for `CCc1cc2ncc(CN3CC(Oc4ccc(C(=O)NC)nc4)C3)cc2[nH]c1=O` [Compound 1, 5-((1-((7-ethyl-6-oxo-5,6-dihydro-1,5-naphthyridin-3-yl)methyl)azetidin-3-yl)oxy)-N-methylpicolinamide], in data set [4] (setting [6]), the solubility (kinetic) at 2 h worked out at 29.4 µM (≈ 11.6 µg/mL). Besides, the thermodynamic solubility at 24 h in data set [5] is 1.77 µg/mL (≈ 4.5 µM). In the data set on DLD1-BRCA2−/− cells (Homo sapiens, DLD-1, 168 h), this compound displayed an IC50 of 4.5 nM. Also, in data set [1], the Papp A→B at 120 min, 5 μM was 3.86 ×10⁻⁶ cm/s and the Papp B→A at 120 min, 5 μM turned out to be 22.7 ×10⁻⁶ cm/s. In addition, the concentration for half-maximal inhibition (IC50) in data set [2] is 4.8 nM.

As for `CCc1cc2ncc([C@@H](C)N3CC(Oc4ccc(C(=O)NC)nc4)C3)cc2[nH]c1=O` [Compound 4, (R)-5-((1-(1-(7-ethyl-6-oxo-5,6-dihydro-1,5-naphthyridin-3-yl)ethyl)azetidin-3-yl)oxy)-N-methylpicolinamide], in data set [4] (setting [6]), the solubility (kinetic) at 2 h turned out to be 223 µM (≈ 90.9 µg/mL). The compound further had a solubility (thermodynamic) at 24 h in data set [5] of 115 µg/mL (≈ 283 µM). Also, in the data set with DLD1-BRCA2−/− cells (Homo sapiens, DLD-1, 168 h), the IC50 came out at 216 nM. In addition, in data set [1], the efflux ratio at 120 min, 5 μM amounted to 7.49; the Papp A→B at 120 min, 5 μM was found to be 4.77 ×10⁻⁶ cm/s; the Papp B→A at 120 min, 5 μM was 35.7 ×10⁻⁶ cm/s. The half-inhibitory concentration (IC50) in data set [2] turned out to be 10.3 nM. In data set [3], the IC50 is greater than 10 µM.

Consider `CCc1cc2ncc([C@H](C)N3CC(Oc4ccc(C(=O)NC)nc4)C3)cc2[nH]c1=O` [Compound 5, (S)-5-((1-(1-(7-ethyl-6-oxo-5,6-dihydro-1,5-naphthyridin-3-yl)ethyl)azetidin-3-yl)oxy)-N-methylpicolinamide], for which the kinetic solubility at 2 h in data set [4] (25° C., read-out: Kinetic solubility, PBS, pH 7.4) came out at 281.58 µM (≈ 115 µg/mL); in data set [4] (setting [6]) it was 250 µM (≈ 102 µg/mL). Besides, the “Thermodynamic Solubility, FaSSiF” value in data set [5] (25° C., 24 hours) is 145.89 µg/mL and 126.09 µg/mL. The thermodynamic solubility at 24 h in data set [5] is 107 µg/mL (≈ 262 µM). For the same compound, the concentration for half-maximal inhibition (IC50) with DLD1-BRCA2−/− cells (Homo sapiens, DLD-1, 168 h) came to 6.9 nM; in data set [2], 5.2 nM; in data set [3] it was 3.12 µM. In data set [1], the efflux ratio at 120 min, 5 μM turned out to be 9.78. Further, the apical-to-basolateral permeability (Papp A→B) at 120 min, 5 μM in data set [1] is 3.39 ×10⁻⁶ cm/s. Besides, the Papp B→A at 120 min, 5 μM in data set [1] is 33.2 ×10⁻⁶ cm/s.
